Entries after “also recorded” stand apart in the source; their conditions may differ. Numbered stars: 1 amine (or outer) side, 2 acyl side, 3 side chain; on linkers, the order of the positions; unused ones are H or OH. Bridge positions count the residues as written; N and C are the ends. Square brackets hold non-standard residues; d marks the D form. Peptide text beside a SMILES is read from it. X1 = CC(C)CCCCCCCCC[C@H](CC(=O)[*:1])O[*:2]
What was measured:
[1] = test system: OA-sensitized guinea pigs; experiment: Antigen-induced airway hyperresponsiveness to methacholine (PC200); assay type: in vivo, guinea pig; conditions: for antigen (ovalbumin)-induced methacholine airway hyperresponsiveness: 24 h after OA challenge; for baseline airway responsiveness to methacholine: drug alone
Method: (§1) Guinea pigs weighing 200 to 250 g were actively sensitized by a modification of the method reported by Andersson et al., Int. Arch. Allergy Appl. […] Guinea pigs were pretreated with an i.p. injection of 30 mg/kg of cyclophosphamide. Two days later, the animals were immunized with 2.0 mg of ovalbumin and 100 mg of aluminum hydroxide [Al(OH)3]. A booster injection of 10 μg of OA together with 100 mg of Al(OH)3 was given 3 wk after the primary immunization.
Antigen-Induced Airway Hyperresponsiveness to Methacholine
Antigen-induced airway response to methacholine was measured 24 h after challenge. Guinea pigs were anaesthetized by an i.p. injection of 75 mg/kg of sodium pentobarbitone and were placed in a supine position. […] Exp. Path. […] After completion of all surgical procedures, the lungs were overinflated by two times tidal volume for two breaths by closing the outlet port of the respirator. This was done to standardize the volume history of the lungs. […] See Minami et al., Jpn.
Airway responsiveness to inhaled methacholine was expressed as the dose of methacholine required to provoke a 200% increase (PC200) in the Pao. Values for PC200 were logarithmically transformed for analysis and reported as the geometric mean [geometric SEM (GSEM)]. All measurements except for PC200 were expressed as mean±SEM. Variation between three or more groups was analyzed using analysis of variance (ANOVA) followed by Fisher's protected least significant difference. Variation between two groups was tested using Student's t test. A value of p<0.05 was accepted as an indication of statistical significance.

[2] = test system: OA-sensitized guinea pigs; experiment: Antigen-induced bronchoconstriction: specific airway resistance (sRaw) after ovalbumin challenge; assay type: in vivo, guinea pig; conditions: for sRaw: drug alone; for increase in sRaw caused by OA challenge (immediate bronchoconstriction): pre-treatment i.p. 60 min before antigen challenge
Source text: Male albino Hartley strain guinea pigs were obtained from Sankyou Laboratory Service (Toyama, Japan), and were quarantined in the Animal Research Center of Kanazawa University for 1 wk before study. All animal procedures in this study complied with the standards specified in the Guideline for the Care and Use of Laboratory Animals at the Takara-machi Campus of Kanazawa University.
as §1
Animals were placed in a whole-body, double-chamber plethysmograph for measurement of specific airway resistance (sRaw) by a modification of the method described by Pennock et al., Appl. […] A respiratory mechanics analyzer (model PMUA+SAR, Buxco Electronics, Troy, N.Y.) was used to measure the phase shift between nasal and thoracic airflow and to compute sRaw on a breath by breath basis. A bias flow of air (20 ml/sec) was maintained through the nasal chamber to ensure a constant supply of fresh air to the animal. The analyzer subtracted this flow from its calculations. […] The nebulizer output was 0.14 ml/min. Baseline measurement of sRaw was obtained in all groups 5 min before antigen challenge.

[3] = test system: OA-sensitized guinea pigs; experiment: Bronchoalveolar lavage cell counts after antigen challenge; assay type: in vivo, guinea pig; conditions: for BAL eosinophils: 24 h after OA-challenge; for airway eosinophil influx after antigen challenge: guinea pig, in vivo; for eosinophil count in BAL fluid: after ovalbumin challenge
Method: Analysis of Bronchoalveolar Cells
(§2) After assessment of antigen-induced airway hyperresponsiveness or 24 h after IL-5 injection, airway inflammation was assessed. Immediately before and 1, 24, 48, and 72 h after antigen challenge, bronchoalveolar lavage (BAL) was performed to determine the time-course of cellular infiltration into airways. Two aliquots of 10 ml sterile 37° C. saline were infused into the tracheal cannula. The BAL fluid was recovered manually by gentle aspiration with a disposable syringe after each infusion. The total cell number was determined using a Turk solution. Differential cell counts were performed on cytospin preparations (Cytospin 2, Shandon, England) by counting 300 cells after staining by the May-Grüwald-Giemsa method in a single-blind method.

guinea pigs = experiment: IL-5-induced airway eosinophil accumulation (BAL); assay type: in vivo, guinea pig; conditions: for BAL eosinophils: 24 h after IL-5 treatment; for airway eosinophil influx after treatment with IL-5: guinea pig, in vivo
Method: IL-5-Induced Airway Eosinophil Accumulation
Guinea pigs weighing 350 to 400 g were treated i.p. before IL-5 injection with TFMK (20 mg/kg), E6123 (0.1 mg/kg), or vehicle (n=7 in each group). Animals were lightly anesthetized with diethyl ether inhalation, and then 200 μl sterile PBS containing 20 ng IL-5 was intranasally injected into the airway.
as §2

[4] = test system: TXB2 production from whole blood; experiment: Effect of i.p. TFMK on TXB2 production ex vivo (FMLP/CB-stimulated whole blood); assay type: in vivo, guinea pig; conditions: FMLP 10^−6 M + 5 μg/ml cytochalasin B; after 20 mg/kg i.p. TFMK
Method: Effect of i.p. TFMK on TXB2 Production ex vivo
Sixty min after TFMK (20 mg/kg or vehicle i.p.; n=4 in each group), guinea pigs were anesthetized and heparinized blood (20 U/ml) was obtained via right carotid artery. Duplicate 1-ml aliquots of whole blood were incubated first with 5 μg/ml CB for 2 min and subsequently with 10^−6 M FMLP for 30 additional min at room temperature. Control samples from the same animals were incubated with buffer alone. Immediately after centrifugation, TXB2 was measured by enzyme immunoassay using reagents obtained from Cayman Chemical (Ann Arbor, Mich.).

bronchial airways = experiment: Lung histology after ovalbumin challenge; assay type: in vivo, guinea pig; conditions: 2-20 mg/kg TFMK, 24 h
Source text: After washing with sterile saline, the lung was fixed by perfusion with 10% formalin. Lung sections were stained with hematoxylin and eosin.

cPLA2 = target: T1, cPLA2 (Homo sapiens, UniProt P47712); conditions: Zhu et al., J. Immunol. 163:3423-3429, 1999; cited from earlier work
T1 sequence (P47712 1-749): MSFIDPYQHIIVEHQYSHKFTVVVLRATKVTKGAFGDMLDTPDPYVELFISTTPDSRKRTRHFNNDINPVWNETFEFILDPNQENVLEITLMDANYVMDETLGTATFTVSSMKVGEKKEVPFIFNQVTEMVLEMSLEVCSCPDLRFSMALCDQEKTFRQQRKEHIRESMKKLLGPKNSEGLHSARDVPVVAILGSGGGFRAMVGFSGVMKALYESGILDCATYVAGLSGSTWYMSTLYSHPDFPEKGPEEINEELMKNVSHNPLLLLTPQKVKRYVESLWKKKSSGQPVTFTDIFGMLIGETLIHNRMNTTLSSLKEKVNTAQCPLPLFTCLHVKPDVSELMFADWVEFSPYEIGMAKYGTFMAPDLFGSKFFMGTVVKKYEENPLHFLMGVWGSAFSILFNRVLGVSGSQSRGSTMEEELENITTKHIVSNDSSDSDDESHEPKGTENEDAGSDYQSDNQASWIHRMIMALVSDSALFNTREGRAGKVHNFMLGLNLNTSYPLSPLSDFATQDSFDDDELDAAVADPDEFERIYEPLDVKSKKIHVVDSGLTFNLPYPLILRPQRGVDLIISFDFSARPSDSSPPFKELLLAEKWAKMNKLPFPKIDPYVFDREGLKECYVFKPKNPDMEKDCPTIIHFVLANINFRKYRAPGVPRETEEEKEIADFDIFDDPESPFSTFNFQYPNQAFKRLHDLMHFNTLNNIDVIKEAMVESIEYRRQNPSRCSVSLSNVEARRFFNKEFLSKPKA

Cc1nnc2n1-c1sc3c(c1C(c1ccccc1Cl)=N[C@H]2C)CCN(C(=O)C1CC1)C3 [E6123]
antigen (ovalbumin)-induced methacholine airway hyperresponsiveness [1]: complete blockade
baseline airway responsiveness to methacholine [1]: not altered; also recorded: neither drug alone had any effect
sRaw [2]: neither drug alone had any effect
increase in sRaw caused by OA challenge (immediate bronchoconstriction) [2]: not attenuated
BAL eosinophils [3]: 1.6±0.6 ×10^5/ml
airway eosinophil influx after antigen challenge [3]: dose-dependently blocked
BAL eosinophils (guinea pigs): 0.4±0.1 ×10^5/ml
BAL total cell number (guinea pigs; after IL-5 treatment): 3.3±0.4 ×10^5/ml
airway eosinophil influx after treatment with IL-5 (guinea pigs): dose-dependently blocked

COc1ccc2c(c1)c(CC(=O)O)c(C)n2C(=O)c1ccc(Cl)cc1 [indomethacin]
antigen (ovalbumin)-induced methacholine airway hyperresponsiveness [1]: neither indomethacin, a COX inhibitor, nor AA861, a 5-LO inhibitor, blocked
increase in sRaw caused by OA challenge (immediate bronchoconstriction) [2]: not attenuated
eosinophil count in BAL fluid [3]: no effect

CCCCC/C=C\C/C=C\C/C=C\C/C=C\CCCC(=O)C(F)(F)F [TFMK, arachidonic trifluoromethyl ketone]
increase in stimulated TXB2 production from whole blood [4]: 13.5±10.5%
PC200 (provocative concentration of methacholine causing a 200% increase in Pao) ([1]; antigen challenged animals pretreated with 20 mg/kg TFMK, 24 h after challenge, geometric mean (GSEM)): 218 ± 0.08 µg/mL
baseline airway responsiveness to methacholine [1]: not altered; also recorded: neither drug alone had any effect
sRaw [2]: neither drug alone had any effect
increase in sRaw caused by OA challenge (immediate bronchoconstriction) [2]: not attenuated
BAL eosinophils [3]: 2.1±0.7 ×10^5/ml
airway eosinophil influx after antigen challenge [3]: dose-dependently blocked
inflammatory cell infiltration in epithelial layer and lamina propria (histology) (bronchial airways): blocked cell infiltration progressively
BAL eosinophils (guinea pigs): 0.7±0.2 ×10^5/ml
airway eosinophil influx after treatment with IL-5 (guinea pigs): dose-dependently blocked

CC(C)(C)c1ccc(C(=O)CCCN2CCC(OC(c3ccccc3)c3ccccc3)CC2)cc1 [ebastine]
antigen (ovalbumin)-induced methacholine airway hyperresponsiveness [1]: had no effect
increase in sRaw caused by OA challenge (immediate bronchoconstriction) [2]: significantly attenuated

CC(C)CCCCCCCCC[C@@H]1CC(=O)N[C@@H](CCC(=O)O)C(=O)N[C@@H](CC(C)C)C(=O)N[C@H](CC(C)C)C(=O)N[C@@H](C(C)C)C(=O)N[C@@H](CC(=O)O)C(=O)N[C@H](CC(C)C)C(=O)N[C@@H](CC(C)C)C(=O)O1 [Surfactin] (EL[dL]VD[dL]L; linker N-C via X1)
activity of cPLA2 (cPLA2): inhibit or reduce the activity

CC1=C(C)C(=O)C(CCCCC#CCCCC#CCO)=C(C)C1=O [AA-861]
eosinophil count in BAL fluid [3]: no effect

— patent publication US20020165119A1, “Method of treating inflammatory conditions by inhibiting cytosolic phospholipase A2” (priority 2001, published 2002)
